# Test results published in patent publication US20170127673A1, “COMPOSITIONS AND METHODS OF USE OF BETA-HYDROXY-BETA-METHYLBUTYRATE (HMB) AS AN ANIMAL FEED ADDITIVE” (Metabolic Technologies, Inc., priority 2015, published 2017).
# Marks after values point to notes of the source that are not given here.
# Legend:
# [1] = system: Salmonella enterica subsp. enterica Serovar Enteritidis (ATCC 13076); experiment: Overnight enrichment of subsamples to recover damaged Salmonella (presence/absence); assay type: cell-based; settings: for Salmonella growth in enriched samples: Study 1, 0.9 and 1.5%
# Description: Enriched samples were then spread plated to XLD, incubated at 37° C. for 24 h, and growth of black colonies typical for Salmonella were noted (presence/absence result, not quantitative).
# From the coated and inoculated samples, 25 g subsamples were collected after the designated number of storage days. The 25 g subsample was mixed with 225 ml of buffered peptone water (BPW; Becton, Dickinson and Company, Franklin Lakes, N.J.) and stomached for 15 seconds to homogenize. The homogenate was serially diluted using BPW and spread plated onto Xylose Lysine Desoxycholate agar (XLD; Becton, Dickinson and Company, Franklin Lakes, N.J.) in duplicate. All inoculated XLD plates were incubated at 37° C. for 24 hours. After incubation, plates were enumerated by counting black colonies, typical for Salmonella. The number of observed colonies was multiplied by the dilution factor to determine the total count in cfu/g. Representative isolates from day 0 were confirmed as Salmonella through serotyping to ensure the recovered counts represent the inoculated culture. Counts for the positive and negative controls were also recorded. In addition, on the first sample date that counts of zero were recovered, the subsample was enriched overnight to allow damaged Salmonella cells to be recovered. Enriched samples were spread plated to XLD, incubated at 37° C. for 24 hours, and growth of black colonies typical for Salmonella were noted (presence/absence result, not quantitative).
# Based on the results from enumeration on day 1, 2, 7 and 14, the subsample was retained and enriched to allow damaged cells to be recovered. Enriched samples were spread plated to XLD.
# [2] = after HMB is fed; cited from earlier work
# [3] = system: Salmonella enterica subsp. enterica Serovar Enteritidis (ATCC 13076); experiment: Salmonella enumeration on HMB-coated, inoculated pet food kibbles (Studies 1-3); assay type: cell-based
# [4] = healthy young or old adults; cited from earlier work
compound,measurement,setting,value
"CC(C)(O)CC(=O)O [HMB, β-hydroxy-β-methylbutyrate]",Salmonella growth in enriched samples,[1]; day 1 and 2,positive
same,Salmonella growth in enriched samples,[1]; day 7 and 14,negative
same,Loss of HMB to urine,[2],20-50%
same,Salmonella enumeration (limit of detection),"[3]; Study 1, both treatments (0.9 and 1.5%), day 1",< 100 cfu/g
same,Salmonella enumeration (limit of detection),"[3]; Study 1, both treatments (0.9 and 1.5%), day 2, 7 and 14",< 10 cfu/g
same,Reduction of Salmonella artificially inoculated to the kibble,"[3]; Study 1, coating at 0.9 and 1.5%, 14-day test period",effective
same,Side effects,[4],no side effects
calcium β-hydroxy-β-methylbutyrate [CaHMB],Salmonella growth in enriched subsamples,"[1]; Study 3, days 7 and 14 for 0.5, 0.9, 1.5%, day 14 for 0.1 and 0.3%",no Salmonella growth
same,Salmonella levels in coated kibbles,"[3]; Study 3, 0.1% (w:w) powder coating, Day 0",7.19±0.04 log10 CFU/g
same,Salmonella levels in coated kibbles,"[3]; Study 3, 0.1% (w:w) powder coating, Day 1",7.11 ± 0.08 log10 CFU/g
same,Salmonella levels in coated kibbles,"[3]; Study 3, 0.1% (w:w) powder coating, Day 2",6.84 ± 0.17 log10 CFU/g
same,Salmonella levels in coated kibbles,"[3]; Study 3, 0.1% (w:w) powder coating, Day 7",3.18 ± 0.03^ log10 CFU/g
same,Salmonella levels in coated kibbles,"[3]; Study 3, 0.1% (w:w) powder coating, Day 14, below limit of detection of 10 CFU/g",0 ± 0^b log10 CFU/g
same,Salmonella levels in coated kibbles,"[3]; Study 3, 0.3% (w:w) powder coating, Day 0",7.17±0.07 log10 CFU/g
same,Salmonella levels in coated kibbles,"[3]; Study 3, 0.3% (w:w) powder coating, Day 1",7.01 ± 0.07 log10 CFU/g
same,Salmonella levels in coated kibbles,"[3]; Study 3, 0.3% (w:w) powder coating, Day 2",6.26 ± 0.03 log10 CFU/g
same,Salmonella levels in coated kibbles,"[3]; Study 3, 0.3% (w:w) powder coating, Day 7",3.17 ± 0.04^ log10 CFU/g
same,Salmonella levels in coated kibbles,"[3]; Study 3, 0.3% (w:w) powder coating, Day 14, below limit of detection of 10 CFU/g",0 ± 0^b log10 CFU/g
same,Salmonella levels in coated kibbles,"[3]; Study 3, 0.5% (w:w) powder coating, Day 0",7.09±0.04 log10 CFU/g
same,Salmonella levels in coated kibbles,"[3]; Study 3, 0.5% (w:w) powder coating, Day 1",6.15 ± 0.11 log10 CFU/g
same,Salmonella levels in coated kibbles,"[3]; Study 3, 0.5% (w:w) powder coating, Day 2",5.87 ± 0.20 log10 CFU/g
same,Salmonella levels in coated kibbles,"[3]; Study 3, 0.5% (w:w) powder coating, Day 7, below limit of detection of 10 CFU/g",0 ± 0^b log10 CFU/g
same,Salmonella levels in coated kibbles,"[3]; Study 3, 0.5% (w:w) powder coating, Day 14, below limit of detection of 10 CFU/g",0 ± 0^b log10 CFU/g
same,Salmonella enumeration counts,"[3]; Study 3, 0.5, 0.9 and 1.5% coated kibbles, day 7",below the limit of detection
same,Salmonella levels in coated kibbles,"[3]; Study 3, 0.9% (w:w) powder coating, Day 0",7.08±0.12 log10 CFU/g
same,Salmonella levels in coated kibbles,"[3]; Study 3, 0.9% (w:w) powder coating, Day 1",6.27 ± 0.06 log10 CFU/g
same,Salmonella levels in coated kibbles,"[3]; Study 3, 0.9% (w:w) powder coating, Day 2",6.03 ± 0.05 log10 CFU/g
same,Salmonella levels in coated kibbles,"[3]; Study 3, 0.9% (w:w) powder coating, Day 7, below limit of detection of 10 CFU/g",0 ± 0^b log10 CFU/g
same,Salmonella levels in coated kibbles,"[3]; Study 3, 0.9% (w:w) powder coating, Day 14, below limit of detection of 10 CFU/g",0 ± 0^b log10 CFU/g
same,Salmonella levels in coated kibbles,"[3]; Study 3, 1.5% (w:w) powder coating, Day 0",7.04±0.13 log10 CFU/g
same,Salmonella levels in coated kibbles,"[3]; Study 3, 1.5% (w:w) powder coating, Day 1",6.24 ± 0.07 log10 CFU/g
same,Salmonella levels in coated kibbles,"[3]; Study 3, 1.5% (w:w) powder coating, Day 2",5.87 ± 0.09 log10 CFU/g
same,Salmonella levels in coated kibbles,"[3]; Study 3, 1.5% (w:w) powder coating, Day 7, below limit of detection of 10 CFU/g",0 ± 0^b log10 CFU/g
same,Salmonella levels in coated kibbles,"[3]; Study 3, 1.5% (w:w) powder coating, Day 14, below limit of detection of 10 CFU/g",0 ± 0^b log10 CFU/g
same,Salmonella enumeration counts (limit of detection),"[3]; Study 3, all treated kibbles, day 14",< 10 CFU/g
same,Attenuation of Salmonella on kibbles,"[3]; Study 3, powdered form, lower levels eliminating after 14 days, higher levels during first week",very effective
"CC(C)(O)CC(=O)O [HMBFA, β-hydroxy-β-methylbutyric acid]",Salmonella growth in enriched subsamples,"[1]; Study 2, treatment levels below limit of detection on enumeration days 2, 7 and 14",positive
same,Salmonella levels in coated kibbles,"[3]; Study 1, 0.9% (w:w) coating, Day 0",5.59 ± 0.22 log10 CFU/g
same,Salmonella levels in coated kibbles,"[3]; Study 1, 0.9% (w:w) coating, Day 1, below limit of detection of 100 CFU/g",0.00 ± 0^b log10 CFU/g
same,Salmonella levels in coated kibbles,"[3]; Study 1, 0.9% (w:w) coating, Day 2, below limit of detection of 10 CFU/g",0.00 ± 0^c log10 CFU/g
same,Salmonella levels in coated kibbles,"[3]; Study 1, 0.9% (w:w) coating, Day 7, below limit of detection of 10 CFU/g",0.00 ± 0^c log10 CFU/g
same,Salmonella levels in coated kibbles,"[3]; Study 1, 0.9% (w:w) coating, Day 14, below limit of detection of 10 CFU/g",0.00 ± 0^c log10 CFU/g
same,Time to elimination of Salmonella inoculated onto the kibbles,"[3]; Study 1, 0.9 and 1.5% (w:w)",≤ 24 h
same,Salmonella levels in coated kibbles,"[3]; Study 1, 1.5% (w:w) coating, Day 0",4.88 ± 0.19 log10 CFU/g
same,Salmonella levels in coated kibbles,"[3]; Study 1, 1.5% (w:w) coating, Day 1, below limit of detection of 100 CFU/g",0.00 ± 0^b log10 CFU/g
same,Salmonella levels in coated kibbles,"[3]; Study 1, 1.5% (w:w) coating, Day 2, below limit of detection of 10 CFU/g",0.00 ± 0^c log10 CFU/g
same,Salmonella levels in coated kibbles,"[3]; Study 1, 1.5% (w:w) coating, Day 7, below limit of detection of 10 CFU/g",0.00 ± 0^c log10 CFU/g
same,Salmonella levels in coated kibbles,"[3]; Study 1, 1.5% (w:w) coating, Day 14, below limit of detection of 10 CFU/g",0.00 ± 0^c log10 CFU/g
same,Salmonella levels in coated kibbles,"[3]; Study 2, 0.1% (w:w) coating, Day 0",5.61±0.19 log10 CFU/g
same,Salmonella levels in coated kibbles,"[3]; Study 2, 0.1% (w:w) coating, Day 1",3.50 ± 0.12 log10 CFU/g
same,Salmonella levels in coated kibbles,"[3]; Study 2, 0.1% (w:w) coating, Day 2",2.62 ± 0.26 log10 CFU/g
same,Salmonella levels in coated kibbles,"[3]; Study 2, 0.1% (w:w) coating, Day 7",0.87 ± 0.47 log10 CFU/g
same,Salmonella levels in coated kibbles,"[3]; Study 2, 0.1% (w:w) coating, Day 14, below limit of detection of 10 CFU/g",0.00 ± 0^b log10 CFU/g
same,Salmonella levels in coated kibbles,"[3]; Study 2, 0.3% (w:w) coating, Day 0",5.62±0.06 log10 CFU/g
same,Salmonella levels in coated kibbles,"[3]; Study 2, 0.3% (w:w) coating, Day 1",2.85 ± 0.16 log10 CFU/g
same,Salmonella levels in coated kibbles,"[3]; Study 2, 0.3% (w:w) coating, Day 2",1.63 ± 0.32 log10 CFU/g
same,Salmonella levels in coated kibbles,"[3]; Study 2, 0.3% (w:w) coating, Day 7",0.67 ± 0.33 log10 CFU/g
same,Salmonella levels in coated kibbles,"[3]; Study 2, 0.3% (w:w) coating, Day 14, below limit of detection of 10 CFU/g",0.00 ± 0^b log10 CFU/g
same,Salmonella levels in coated kibbles,"[3]; Study 2, 0.5% (w:w) coating, Day 0",5.60±0.26 log10 CFU/g
same,Salmonella levels in coated kibbles,"[3]; Study 2, 0.5% (w:w) coating, Day 1",2.09 ± 0.28 log10 CFU/g
same,Salmonella levels in coated kibbles,"[3]; Study 2, 0.5% (w:w) coating, Day 2",0.93 ± 0.52 log10 CFU/g
same,Salmonella levels in coated kibbles,"[3]; Study 2, 0.5% (w:w) coating, Day 7, below limit of detection of 10 CFU/g",0.00 ± 0^b log10 CFU/g
same,Salmonella levels in coated kibbles,"[3]; Study 2, 0.5% (w:w) coating, Day 14, below limit of detection of 10 CFU/g",0.00 ± 0^b log10 CFU/g
same,Salmonella enumeration (limit of detection),"[3]; Study 2, 0.5% treatment, days 2, 7 and 14",< 10 CFU/g
same,Lowest coating level effective in eliminating the Salmonella inoculum,"[3]; Study 2, by day 14",around 0.1 % (w:w)
same,Salmonella enumeration (limit of detection),"[3]; Study 2, day 14 across all treatments",< 10 CFU/g
